Data published in ChEMBL document CHEMBL4190322, “Structure-based development of novel triazoles and related thiazolotriazoles as anticancer agents and Cdc25A/B phosphatase inhibitors. Synthesis, in vitro biological evaluation, molecular docking and in silico ADME-T studies” (Eur J Med Chem, 2017).
Active and inactive are the calls of the source. The calls are words filed in the database; no cut-off is given here.

Key:
Assay type in all cases: functional
CCRF-CEM = experiment: Growth inhibition of human CCRF-CEM cells at 10 uM after 48 hrs by SRB assay relative to control; settings: read-out: GI
Hs-578T = experiment: Growth inhibition of human Hs 578T cells at 10 uM after 48 hrs by SRB assay relative to control
OVCAR-3 = experiment: Growth inhibition of human OVCAR3 cells at 10 uM after 48 hrs by SRB assay relative to control
OVCAR-8 = experiment: Growth inhibition of human OVCAR8 cells at 10 uM after 48 hrs by SRB assay relative to control
NCI-H322M = experiment: Growth inhibition of human NCI-H322M cells at 10 uM after 48 hrs by SRB assay relative to control
U-251 = experiment: Growth inhibition of human U251 cells at 10 uM after 48 hrs by SRB assay relative to control; settings: U-251, 48 h, read-out: GI
Malme-3M = experiment: Growth inhibition of human MALME-3M cells at 10 uM after 48 hrs by SRB assay relative to control
PC-3 = experiment: Growth inhibition of human PC3 cells at 10 uM after 48 hrs by SRB assay relative to control; settings: PC-3, 48 h, read-out: GI
UACC-62 = experiment: Growth inhibition of human UACC62 cells at 10 uM after 48 hrs by SRB assay relative to control
HOP-92 = experiment: Growth inhibition of human HOP92 cells at 10 uM after 48 hrs by SRB assay relative to control; settings: HOP-92, 48 h, read-out: GI
NCI-H522 = experiment: Growth inhibition of human NCI-H522 cells at 10 uM after 48 hrs by SRB assay relative to control; settings: NCI-H522, 48 h, read-out: GI
HT-29 = experiment: Growth inhibition of human HT-29 cells at 10 uM after 48 hrs by SRB assay relative to control
MDA-MB-468 = experiment: Growth inhibition of human MDA-MB-468 cells at 10 uM after 48 hrs by SRB assay relative to control
SF-268 = experiment: Growth inhibition of human SF268 cells at 10 uM after 48 hrs by SRB assay relative to control; settings: SF-268, 48 h, read-out: GI
OVCAR-4 = experiment: Growth inhibition of human OVCAR4 cells at 10 uM after 48 hrs by SRB assay relative to control
A498 = experiment: Growth inhibition of human A498 cells at 10 uM after 48 hrs by SRB assay relative to control; settings: A498, 48 h, read-out: GI
SK-MEL-5 = experiment: Growth inhibition of human SK-MEL-5 cells at 10 uM after 48 hrs by SRB assay relative to control
MCF7 = experiment: Growth inhibition of human MCF7 cells at 10 uM after 48 hrs by SRB assay relative to control; settings: MCF7, 48 h, read-out: GI
HCT-116 = experiment: Growth inhibition of human HCT116 cells at 10 uM after 48 hrs by SRB assay relative to control
HOP-62 = experiment: Growth inhibition of human HOP62 cells at 10 uM after 48 hrs by SRB assay relative to control
UACC-257 = experiment: Growth inhibition of human UACC257 cells at 10 uM after 48 hrs by SRB assay relative to control; settings: UACC-257, 48 h, read-out: GI
NCI-H226 = experiment: Growth inhibition of human NCI-H226 cells at 10 uM after 48 hrs by SRB assay relative to control; settings: NCI-H226, 48 h, read-out: GI
786-0 = experiment: Growth inhibition of human 786-0 cells at 10 uM after 48 hrs by SRB assay relative to control
SNB-75 = experiment: Growth inhibition of human SNB75 cells at 10 uM after 48 hrs by SRB assay relative to control; settings: SNB-75, 48 h, read-out: GI
KM12 = experiment: Growth inhibition of human KM12 cells at 10 uM after 48 hrs by SRB assay relative to control
HL-60 = experiment: Growth inhibition of human HL60 cells at 10 uM after 48 hrs by SRB assay relative to control
RPMI-8226 = experiment: Growth inhibition of human RPMI8226 cells at 10 uM after 48 hrs by SRB assay relative to control
NCI/ADR-RES = experiment: Growth inhibition of human NCI/ADR-RES cells at 10 uM after 48 hrs by SRB assay relative to control
NCI-H23 = experiment: Growth inhibition of human NCI-H23 cells at 10 uM after 48 hrs by SRB assay relative to control; settings: NCI-H23, 48 h, read-out: GI
RXF 393 = experiment: Growth inhibition of human RXF393 cells at 10 uM after 48 hrs by SRB assay relative to control
UO-31 = experiment: Growth inhibition of human UO31 cells at 10 uM after 48 hrs by SRB assay relative to control; settings: UO-31, 48 h, read-out: GI
CAKI-1 = experiment: Growth inhibition of human Caki1 cells at 10 uM after 48 hrs by SRB assay relative to control; settings: CAKI-1, 48 h, read-out: GI
SK-MEL-2 = experiment: Growth inhibition of human SK-MEL-2 cells at 10 uM after 48 hrs by SRB assay relative to control; settings: SK-MEL-2, 48 h, read-out: GI
A549 = experiment: Growth inhibition of human A549 cells at 10 uM after 48 hrs by SRB assay relative to control; settings: A549, 48 h, read-out: GI
LOX IMVI = experiment: Growth inhibition of human LOXIMVI cells at 10 uM after 48 hrs by SRB assay relative to control; settings: read-out: GI
K562 = experiment: Growth inhibition of human K562 cells at 10 uM after 48 hrs by SRB assay relative to control; settings: K562, 48 h, read-out: GI
SK-OV-3 = experiment: Growth inhibition of human SKOV3 cells at 10 uM after 48 hrs by SRB assay relative to control
SR = experiment: Growth inhibition of human SR cells at 10 uM after 48 hrs by SRB assay relative to control; settings: read-out: GI
SNB-19 = experiment: Growth inhibition of human SNB19 cells at 10 uM after 48 hrs by SRB assay relative to control
MOLT-4 = experiment: Growth inhibition of human MOLT4 cells at 10 uM after 48 hrs by SRB assay relative to control

SMILES	inhibition of growth at 10 µM (CCRF-CEM)	growth inhibition (GI) (Hs-578T)	inhibition of growth at 10 µM (U-251)	inhibition of growth at 10 µM (PC-3)	inhibition of growth at 10 µM (HOP-92)	inhibition of growth at 10 µM (NCI-H522)	growth inhibition (GI) (HT-29)	inhibition of growth at 10 µM (SF-268)	inhibition of growth at 10 µM (A498)	inhibition of growth at 10 µM (MCF7)	growth inhibition (GI) (HCT-116)	inhibition of growth at 10 µM (UACC-257)	inhibition of growth at 10 µM (NCI-H226)	growth inhibition (GI) (786-0)	inhibition of growth at 10 µM (SNB-75)	growth inhibition (GI) (HL-60)	inhibition of growth at 10 µM (NCI-H23)	growth inhibition (GI) (RXF 393)	inhibition of growth at 10 µM (UO-31)	inhibition of growth at 10 µM (CAKI-1)	further results
COc1ccc(Cc2nnc(SCC(=O)c3ccc(C)cc3)n2-c2ccccc2)cc1	5.01%	inactive	4.09%	20.7%	14.3%	19%	inactive	3.62%	26%	14.6%	inactive	7.67%	2.21%	inactive	8.11%	inactive	7%	inactive	30.2%	7.83%	inhibition of growth at 10 µM (OVCAR-3; OVCAR-3, 48 h, read-out: GI): 4.05%; inhibition of growth at 10 µM (OVCAR-8; OVCAR-8, 48 h, read-out: GI): 1.78%; inhibition of growth at 10 µM (NCI-H322M; read-out: GI): 8.17%; inhibition of growth at 10 µM (Malme-3M; read-out: GI): 5.45%; inhibition of growth at 10 µM (UACC-62; UACC-62, 48 h, read-out: GI): 14%; inhibition of growth at 10 µM (MDA-MB-468; MDA-MB-468, 48 h, read-out: GI): 19.3%; inhibition of growth at 10 µM (OVCAR-4; OVCAR-4, 48 h, read-out: GI): 1.87%; inhibition of growth at 10 µM (SK-MEL-5; SK-MEL-5, 48 h, read-out: GI): 3.36%; inhibition of growth at 10 µM (HOP-62; HOP-62, 48 h, read-out: GI): 6.7%; inhibition of growth at 10 µM (KM12; KM12, 48 h, read-out: GI): 4.22%; growth inhibition (GI) (RPMI-8226): inactive; inhibition of growth at 10 µM (NCI/ADR-RES; read-out: GI): 16.6%; inhibition of growth at 10 µM (SK-MEL-2): 23%; inhibition of growth at 10 µM (A549): 17.5%; inhibition of growth at 10 µM (LOX IMVI): 2%; inhibition of growth at 10 µM (K562): 7.62%; inhibition of growth at 10 µM (SK-OV-3; SK-OV-3, 48 h, read-out: GI): 13.9%; inhibition of growth at 10 µM (SR): 7.61%; inhibition of growth at 10 µM (SNB-19; SNB-19, 48 h, read-out: GI): 4.85%; inhibition of growth at 10 µM (MOLT-4; MOLT-4, 48 h, read-out: GI): 9.02%
COc1ccc(Cc2nnc3sc(SC)nn23)cc1	5.04%	inactive	3.17%	2.19%	13.4%	12.2%	inactive	2.15%	3.37%	8.21%	inactive	9.07%	4.76%	inactive	8.34%	inactive	5.4%	inactive	12.7%	4.37%	growth inhibition (GI) (OVCAR-3): inactive; growth inhibition (GI) (OVCAR-8): inactive; growth inhibition (GI) (NCI-H322M): inactive; growth inhibition (GI) (Malme-3M): inactive; growth inhibition (GI) (UACC-62): inactive; growth inhibition (GI) (MDA-MB-468): inactive; growth inhibition (GI) (OVCAR-4): inactive; growth inhibition (GI) (SK-MEL-5): inactive; growth inhibition (GI) (HOP-62): inactive; growth inhibition (GI) (KM12): inactive; inhibition of growth at 10 µM (RPMI-8226; RPMI-8226, 48 h, read-out: GI): 1.21%; growth inhibition (GI) (NCI/ADR-RES): inactive; inhibition of growth at 10 µM (SK-MEL-2): 14.7%; inhibition of growth at 10 µM (A549): 4.46%; inhibition of growth at 10 µM (LOX IMVI): 2.73%; inhibition of growth at 10 µM (K562): 3.47%; growth inhibition (GI) (SK-OV-3): inactive; inhibition of growth at 10 µM (SR): 7.53%; growth inhibition (GI) (SNB-19): inactive; growth inhibition (GI) (MOLT-4): inactive
